Test results taken from patent US7799809B2, “Carboxamide compounds and their use as calpain inhibitors” (Abbott GmbH & Co. KG, priority 2006, dated 2010).

Experiments:
Format in all cases: biochemical
[1] = biological target: T1, cathepsin B (Homo sapiens, UniProt P07858); assay: Cathepsin B enzyme inhibition in vitro (kinetic fluorescence assay); conditions: cathepsin B isolated from human liver vs calpain I
T1 construct: cathepsin B—isolated from human liver (Calbiochem #219362); purchased Calbiochem 219362; host or cells: human liver (tissue-derived)
Summary of the method: (§1)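 cat B 0.25 nM + Z-Phe-Arg-AMC 100 μM; cat L 1 nM + Z-Phe-Arg-AMC 2 μM; cat S 0.5 nM (E. coli-expressed) + Z-Val-Val-Arg-AMC 20 μM. 50 mM MES pH 6.0, 2.5 mM L-Cys, RT. Ex 390/em 460, kinetic; Ki app = Cheng-Prusoff from IC50, mean of 2–4 curves.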

[2] = biological target: T2, cathepsin K (Homo sapiens, UniProt P43235); assay: Cathepsin K enzyme inhibition in vitro (kinetic fluorescence assay); conditions: cathepsin K activated from recombinant human procathepsin K vs calpain I
T2 construct: purchased Calbiochem 342001; host or cells: E. coli
T2 sequence (P43235 115-329): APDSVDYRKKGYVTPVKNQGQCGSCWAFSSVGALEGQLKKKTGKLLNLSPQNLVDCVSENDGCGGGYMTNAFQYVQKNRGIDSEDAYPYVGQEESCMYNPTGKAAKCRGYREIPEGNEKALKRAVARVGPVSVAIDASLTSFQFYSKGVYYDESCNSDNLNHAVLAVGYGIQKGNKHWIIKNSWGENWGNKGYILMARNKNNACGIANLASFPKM

[3] = biological target: T3, cathepsin L (Homo sapiens, UniProt P07711); assay: Cathepsin L enzyme inhibition in vitro (kinetic fluorescence assay); conditions: cathepsin L isolated from human liver vs calpain I
T3 construct: cathepsin L—isolated from human liver (Calbiochem #219402); purchased Calbiochem 219402; host or cells: human liver (tissue-derived)
T3 sequence (P07711 114-333): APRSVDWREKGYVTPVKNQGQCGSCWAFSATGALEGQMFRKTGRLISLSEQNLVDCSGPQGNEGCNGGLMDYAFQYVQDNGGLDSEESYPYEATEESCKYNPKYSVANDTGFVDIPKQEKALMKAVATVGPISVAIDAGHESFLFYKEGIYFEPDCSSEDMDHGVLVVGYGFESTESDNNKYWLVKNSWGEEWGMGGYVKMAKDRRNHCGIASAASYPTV
Summary of the method: as §1

[4] = biological target: T4, cathepsin S (Homo sapiens, UniProt P25774); assay: Cathepsin S enzyme inhibition in vitro (kinetic fluorescence assay); conditions: recombinant human cathepsin S vs calpain I
T4 construct: purchased Calbiochem 219343; host or cells: E. coli
T4 sequence (P25774 115-331): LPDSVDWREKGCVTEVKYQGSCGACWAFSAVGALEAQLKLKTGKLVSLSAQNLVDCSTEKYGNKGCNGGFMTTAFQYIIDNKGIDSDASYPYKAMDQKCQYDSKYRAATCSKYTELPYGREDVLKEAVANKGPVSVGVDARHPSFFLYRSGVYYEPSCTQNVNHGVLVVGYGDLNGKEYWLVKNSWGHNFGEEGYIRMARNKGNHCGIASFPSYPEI
Summary of the method: as §1

Structure (SMILES)	Sel cat. B: Ki(cathepsin B)/Ki(calpain) ratio [1]	Sel cat. K: Ki(cathepsin K)/Ki(calpain) ratio [2]	Sel cat. L: Ki(cathepsin L)/Ki(calpain) ratio [3]	Sel cat. S: Ki(cathepsin S)/Ki(calpain) ratio [4]
NC(=O)C(=O)C(Cc1ccccc1)NC(=O)c1cccnc1-n1ccc(-c2cccc3ccccc23)n1 (centres unmarked) [Example 110, N-[3-Amino-2,3-dioxo-1-(phenylmethyl)propyl]-2-(3-naphthalen-1-yl-1H-pyrazol-1-yl)pyridine-3-carboxamide]	++ (++ means a Ki(cathepsin B)/Ki(calpain) ratio of ≧30)	++ (++ means a Ki(cathepsin K)/Ki(calpain) ratio of ≧30)	++ (++ means a Ki(cathepsin L)/Ki(calpain) ratio of ≧50)	++ (++ means a Ki(cathepsin S)/Ki(calpain) ratio of ≧100)
COc1ccc(CC(NC(=O)c2cccnc2-n2ccc(-c3ccc(Cl)cc3Cl)n2)C(=O)C(N)=O)cc1 (centres unmarked) [Example 98, N-(3-Amino-1-{[4-(methyloxy)phenyl]methyl}-2,3-dioxopropyl)-2-[3-(2,4-dichlorophenyl)-1H-pyrazol-1-yl]pyridine-3-carboxamide]	++ (++ means a Ki(cathepsin B)/Ki(calpain) ratio of ≧30)	++ (++ means a Ki(cathepsin K)/Ki(calpain) ratio of ≧30)	++ (++ means a Ki(cathepsin L)/Ki(calpain) ratio of ≧50)	++ (++ means a Ki(cathepsin S)/Ki(calpain) ratio of ≧100)
NC(=O)C(=O)C(Cc1ccccc1)NC(=O)c1cccnc1-n1ccc(-c2cccc(C(F)(F)F)c2)n1 (centres unmarked) [Example 83, N-(3-Amino-1-benzyl-2,3-dioxopropyl)-2-{3-[3-(trifluoromethyl)phenyl]-1H-pyrazol-1-yl}nicotinamide]	+ (+ means 10≦Ki(cathepsin B)/Ki(calpain)<30)	++ (++ means a Ki(cathepsin K)/Ki(calpain) ratio of ≧30)	++ (++ means a Ki(cathepsin L)/Ki(calpain) ratio of ≧50)	++ (++ means a Ki(cathepsin S)/Ki(calpain) ratio of ≧100)
Cc1c(Cl)ccc2c1-c1nn(-c3ncccc3C(=O)NC(Cc3ccccc3)C(=O)C(N)=O)cc1CO2 (centres unmarked) [Example 143, N-[3-Amino-2,3-dioxo-1-(phenylmethyl)propyl]-2-(8-chloro-9-methylchromeno[4,3-c]pyrazol-2(4H)-yl)pyridine-3-carboxamide]	++ (++ means a Ki(cathepsin B)/Ki(calpain) ratio of ≧30)	++ (++ means a Ki(cathepsin K)/Ki(calpain) ratio of ≧30)	++ (++ means a Ki(cathepsin L)/Ki(calpain) ratio of ≧50)	++ (++ means a Ki(cathepsin S)/Ki(calpain) ratio of ≧100)
COc1cc(Cl)ccc1-c1ccn(-c2ncccc2C(=O)NC(Cc2ccccc2)C(=O)C(N)=O)n1 (centres unmarked) [Example 139, N-[3-Amino-2,3-dioxo-1-(phenylmethyl)propyl]-2-{3-[4-chloro-2-(methyloxy)phenyl]-1H-pyrazol-1-yl}pyridine-3-carboxamide]	+ (+ means 10≦Ki(cathepsin B)/Ki(calpain)<30)	++ (++ means a Ki(cathepsin K)/Ki(calpain) ratio of ≧30)	++ (++ means a Ki(cathepsin L)/Ki(calpain) ratio of ≧50)	++ (++ means a Ki(cathepsin S)/Ki(calpain) ratio of ≧100)
NC(=O)C(=O)C(Cc1ccccc1)NC(=O)c1cccnc1-n1ccc(-c2ccc(F)cc2Cl)n1 (centres unmarked) [Example 71, N-(3-Amino-1-benzyl-2,3-dioxopropyl)-2-[3-(2-chloro-4-fluorophenyl)-1H-pyrazol-1-yl]nicotinamide]	++ (++ means a Ki(cathepsin B)/Ki(calpain) ratio of ≧30)	++ (++ means a Ki(cathepsin K)/Ki(calpain) ratio of ≧30)	++ (++ means a Ki(cathepsin L)/Ki(calpain) ratio of ≧50)	++ (++ means a Ki(cathepsin S)/Ki(calpain) ratio of ≧100)
COc1cc(F)ccc1-c1ccn(-c2ncccc2C(=O)NC(Cc2ccccc2)C(=O)C(N)=O)n1 (centres unmarked) [Example 125, N-[3-Amino-2,3-dioxo-1-(phenylmethyl)propyl]-2-{3-[4-fluoro-2-(methyloxy)phenyl]-1H-pyrazol-1-yl}pyridine-3-carboxamide]	++ (++ means a Ki(cathepsin B)/Ki(calpain) ratio of ≧30)	++ (++ means a Ki(cathepsin K)/Ki(calpain) ratio of ≧30)	++ (++ means a Ki(cathepsin L)/Ki(calpain) ratio of ≧50)	++ (++ means a Ki(cathepsin S)/Ki(calpain) ratio of ≧100)
NC(=O)C(=O)C(Cc1ccccc1)NC(=O)c1cccnc1-n1ccc(-c2ccc(N3CCOCC3)cc2Cl)n1 (centres unmarked) [Example 99, N-[3-Amino-2,3-dioxo-1-(phenylmethyl)propyl]-2-[3-(2-chloro-4-morpholin-4-ylphenyl)-1H-pyrazol-1-yl]pyridine-3-carboxamide]	++ (++ means a Ki(cathepsin B)/Ki(calpain) ratio of ≧30)	++ (++ means a Ki(cathepsin K)/Ki(calpain) ratio of ≧30)	++ (++ means a Ki(cathepsin L)/Ki(calpain) ratio of ≧50)	++ (++ means a Ki(cathepsin S)/Ki(calpain) ratio of ≧100)
COc1ccc(CC(NC(=O)c2cccnc2-n2ccc(-c3ccccc3F)n2)C(=O)C(N)=O)cc1 (centres unmarked) [Example 92, N-(3-Amino-1-{[4-(methyloxy)phenyl]methyl}-2,3-dioxopropyl)-2-[3-(2-fluorophenyl)-1H-pyrazol-1-yl]pyridine-3-carboxamide]	++ (++ means a Ki(cathepsin B)/Ki(calpain) ratio of ≧30)	+ (+ means 10≦Ki(cathepsin K)/Ki(calpain)<30)	++ (++ means a Ki(cathepsin L)/Ki(calpain) ratio of ≧50)	++ (++ means a Ki(cathepsin S)/Ki(calpain) ratio of ≧100)
COc1ccc(CC(NC(=O)c2cccnc2-n2ccc(-c3ccc(F)cc3OC)n2)C(=O)C(N)=O)cc1 (centres unmarked) [Example 136, N-(3-Amino-1-{[4-(methyloxy)phenyl]methyl}-2,3-dioxopropyl)-2-{3-[4-fluoro-2-(methyloxy)phenyl]-1H-pyrazol-1-yl}pyridine-3-carboxamide]	++ (++ means a Ki(cathepsin B)/Ki(calpain) ratio of ≧30)	++ (++ means a Ki(cathepsin K)/Ki(calpain) ratio of ≧30)	++ (++ means a Ki(cathepsin L)/Ki(calpain) ratio of ≧50)	++ (++ means a Ki(cathepsin S)/Ki(calpain) ratio of ≧100)
NC(=O)C(=O)C(Cc1ccccc1)NC(=O)c1cccnc1-n1cc2c(n1)-c1ccccc1OC2 (centres unmarked) [Example 100, N-[3-Amino-2,3-dioxo-1-(phenylmethyl)propyl]-2-chromeno[4,3-c]pyrazol-2(4H)-ylpyridine-3-carboxamide]	+ (+ means 10≦Ki(cathepsin B)/Ki(calpain)<30)	++ (++ means a Ki(cathepsin K)/Ki(calpain) ratio of ≧30)	++ (++ means a Ki(cathepsin L)/Ki(calpain) ratio of ≧50)	++ (++ means a Ki(cathepsin S)/Ki(calpain) ratio of ≧100)
NC(=O)C(=O)C(Cc1ccccc1)NC(=O)c1cccnc1-n1ccc(-c2cccc(Cl)c2)n1 (centres unmarked) [Example 70, N-(3-Amino-1-benzyl-2,3-dioxopropyl)-2-[3-(3-chlorophenyl)-1H-pyrazol-1-yl]nicotinamide]	+ (+ means 10≦Ki(cathepsin B)/Ki(calpain)<30)	+ (+ means 10≦Ki(cathepsin K)/Ki(calpain)<30)	++ (++ means a Ki(cathepsin L)/Ki(calpain) ratio of ≧50)	++ (++ means a Ki(cathepsin S)/Ki(calpain) ratio of ≧100)
NC(=O)C(=O)C(Cc1ccc(Cl)cc1)NC(=O)c1cccnc1-n1ccc(-c2ccc(F)cc2)n1 (centres unmarked) [Example 67, N-[3-Amino-1-(4-chlorobenzyl)-2,3-dioxopropyl]-2-[3-(4-fluorophenyl)-1H-pyrazol-1-yl]nicotinamide]	+ (+ means 10≦Ki(cathepsin B)/Ki(calpain)<30)	+ (+ means 10≦Ki(cathepsin K)/Ki(calpain)<30)	++ (++ means a Ki(cathepsin L)/Ki(calpain) ratio of ≧50)	++ (++ means a Ki(cathepsin S)/Ki(calpain) ratio of ≧100)
NC(=O)C(=O)C(Cc1ccccc1)NC(=O)c1cccnc1-n1ccc(-c2ccccc2OC(F)F)n1 (centres unmarked) [Example 166, N-[3-Amino-2,3-dioxo-1-(phenylmethyl)propyl]-2-(3-{2-[(difluoromethyl)oxy]phenyl}-1H-pyrazol-1-yl)pyridine-3-carboxamide]	+ (+ means 10≦Ki(cathepsin B)/Ki(calpain)<30)	++ (++ means a Ki(cathepsin K)/Ki(calpain) ratio of ≧30)	++ (++ means a Ki(cathepsin L)/Ki(calpain) ratio of ≧50)	++ (++ means a Ki(cathepsin S)/Ki(calpain) ratio of ≧100)
